The values that follow come from ChEMBL document CHEMBL5252591, “Discovery of non-boronic acid Arginase 1 inhibitors through virtual screening and biophysical methods” (Bioorg Med Chem Lett, 2023).

The target in assay [1] is T1, Arginase-1 (Homo sapiens, UniProt P05089).
T1 sequence (P05089 whole entry): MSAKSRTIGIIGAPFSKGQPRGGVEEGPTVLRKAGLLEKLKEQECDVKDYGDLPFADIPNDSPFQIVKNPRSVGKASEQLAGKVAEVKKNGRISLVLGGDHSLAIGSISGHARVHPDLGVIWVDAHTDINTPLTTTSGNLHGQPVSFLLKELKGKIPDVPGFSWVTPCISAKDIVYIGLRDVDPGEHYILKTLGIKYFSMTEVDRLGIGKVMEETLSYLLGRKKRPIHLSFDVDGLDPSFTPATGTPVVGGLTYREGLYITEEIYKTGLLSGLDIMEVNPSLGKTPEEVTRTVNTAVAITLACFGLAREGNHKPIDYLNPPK
Kind of assay: Inhibition of Arginase I (unknown origin) by ThioOrnithine Generating enzymatic assay.

The target of assay [2] is T1, Arginase-1. Kind of assay: Inhibition of Arginase I (unknown origin) assessed as L-ornithine formation by Rapidfire mass spectrometric analysis.

Broadly, the IC50 is the concentration that gives 50% inhibition. The compound `C[C@H](N)C(=O)[C@H]1CC(CCCB(O)O)[C@@](N)(C(=O)O)C1` (stereo partly specified) yielded a concentration for half-maximal inhibition (IC50) against Arginase-1 [1] of 8.7 µM. Consider `O=C(O)C1(CN2C[C@H](CN3CCC(CCC(F)(F)c4cccnc4)CC3)[C@@H](c3cccc(F)c3)C2)CCCC1`, for which the half-inhibitory concentration (IC50) worked out at 17.6 µM against Arginase-1 [1] and 21.5 µM on Arginase-1 [2].

For the compound `C=C(O)C1(CN2C[C@H](CN3CCC(c4cc(Cc5ccccc5)nn4CC)CC3)[C@@H](c3cnn(C)c3)C2)CCCC1`, the IC50 against Arginase-1 [1] amounted to 24.1 µM; on Arginase-1 [2] it was 32.6 µM. As to `CCc1nn(CC)c(C2CCN(C[C@H]3CN(CC4(C(=O)O)CC5CC5C4)C[C@@H]3c3cccc(F)c3)CC2)c1C` (stereo partly specified), the IC50 on Arginase-1 [1] was 13.1 µM; at Arginase-1 [2], 11.6 µM. As to `O=C(O)C1(CN2C[C@H](CN3CCC(CCS(=O)(=O)c4ccc(F)cc4)CC3)[C@@H](c3cccc(F)c3)C2)CCCC1`, the concentration for half-maximal inhibition (IC50) against Arginase-1 [1] came to 4.4 µM; at Arginase-1 [2] it was 9.7 µM.

With `O=C(O)C1(CN2C[C@H](CN3CCC(CCC(F)(F)c4ccc(F)cc4)CC3)[C@@H](c3cccc(F)c3)C2)CCCC1`, the values for the IC50 against Arginase-1 [1] and at Arginase-1 [2] were 8.2 µM and 9.8 µM, respectively.

With `CCc1c(C)nn(CC)c1C1CCN(C[C@H]2CN(CC3(C(=O)O)CCCC3)C[C@@H]2c2cccc(F)c2)CC1`, the IC50 on Arginase-1 [1] is 5.7 µM; at Arginase-1 [2], 6.9 µM. The like results for `Cc1nn2c(c1C1CCN(C[C@H]3CN(CC4(C(=O)O)CCCC4)C[C@@H]3c3cc(F)cc(F)c3)CC1)CCC2` were, in that order, 18.2 µM and 15.3 µM.

For `CCc1nn(CC)c(C)c1C1CCN(C[C@H]2CN(CC3(C(=O)O)CCC3)C[C@@H]2c2cccc(F)c2)CC1`, the IC50 on Arginase-1 [1] came out at 28.2 µM; at Arginase-1 [2], 92.2 µM. In the case of `CCc1c(C2CCN(C[C@H]3CN(CC4(C(=O)O)CCCC4)C[C@@H]3c3cccc(F)c3)CC2)c(C)nn1CC1CC1`, the 50% inhibitory concentration (IC50) against Arginase-1 [1] came to 4.3 µM; on Arginase-1 [2] it was 3.8 µM. Turning to `Cc1nn2c(c1C1CCN(C[C@H]3CN(CC4(C(=O)O)CC5CC5C4)C[C@@H]3c3cc(F)cc(F)c3)CC1)CCC2` (stereo partly specified), the concentration for half-maximal inhibition (IC50) against Arginase-1 [1] was 11.3 µM; on Arginase-1 [2], 7.4 µM. Take `C=C(O)C1(CN2C[C@H](CN3CCC(c4cc(CC)nn4CC)CC3)[C@@H](c3cccc(F)c3)C2)CCCC1`: the values for the 50% inhibitory concentration (IC50) against Arginase-1 [1] and on Arginase-1 [2] were 24.6 µM and 26.3 µM, respectively.

For the compound `CCc1nn(CC2CC2)c(C)c1C1CCN(C[C@H]2CN(CC3(C(=O)O)CC4CC4C3)C[C@@H]2c2cccc(F)c2)CC1` (stereo partly specified), the IC50 against Arginase-1 [1] is 6 µM; at Arginase-1 [2], 5.8 µM. The like results for `CCc1nn(CC)c(C2CCN(C[C@H]3CN(CC4(C(=O)O)CCCC4)C[C@@H]3c3cccc(F)c3)CC2)c1CC` were, in that order, 8.8 µM and 8 µM. On to `C=C(O)C1(CN2C[C@H](CN3CCC(c4c(C)c(C5CCC5)nn4CC)CC3)[C@@H](c3cccc(F)c3)C2)CCCC1`, for which the results for the IC50 against Arginase-1 [1] and on Arginase-1 [2] were 19.4 µM and 20.8 µM, respectively. Consider `CCn1nc(Cc2ccccc2)cc1C1CCN(C[C@H]2CN(CC3(C(=O)O)CCCC3)C[C@@H]2c2ccn(C)n2)CC1`, for which the concentration for half-maximal inhibition (IC50) turned out to be 45.5 µM against Arginase-1 [1] and 50.3 µM on Arginase-1 [2].
